Reference: BindingDB's records for doi:10.1074/jbc.M113.487736 (Universität Duisburg-Essen, 2014)

Assays:
[1] = target: T1, NAD-dependent protein deacetylase sirtuin-2 (Homo sapiens, UniProt Q8IXJ6); assay: Fluorescence-Based Deacetylation Assay; conditions: pH 8; 37 °C
T1 sequence (Q8IXJ6 whole entry): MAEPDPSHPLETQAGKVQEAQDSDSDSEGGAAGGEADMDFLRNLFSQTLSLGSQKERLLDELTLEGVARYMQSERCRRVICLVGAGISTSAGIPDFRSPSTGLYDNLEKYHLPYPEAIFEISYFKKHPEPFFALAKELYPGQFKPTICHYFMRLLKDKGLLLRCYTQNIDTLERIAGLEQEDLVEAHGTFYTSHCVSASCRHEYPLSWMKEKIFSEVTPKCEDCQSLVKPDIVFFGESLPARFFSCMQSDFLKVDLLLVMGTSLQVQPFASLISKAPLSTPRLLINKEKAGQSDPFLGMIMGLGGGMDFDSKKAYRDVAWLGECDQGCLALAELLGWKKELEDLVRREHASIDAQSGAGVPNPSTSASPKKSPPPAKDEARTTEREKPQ
Description: (§1) Deacetylation assays using Boc(Ac)Lys-7-amino-4-methyl-coumarin (MAL; Bachem, Bubendorf, Switzerland) as a substrate were performed in a volume of 20 μl in 384-well low volume plates (Eppendorf) in a reaction buffer containing 25 mM Tris-HCl (pH 8.0), 137 mM NaCl, 1 mM MgCl2, 2.7 mM KCl, 1 mg/ml BSA, and 1mM DTT. Enzymes were added at different concentrations to wells in a volume of 10 μl and were preincubated with inhibitors (volume 1 μl, diluted in dimethyl sulfoxide) or with dimethyl sulfoxide as a control for 10 min at room temperature. Subsequently, 10 μl 2× concentrated substrate solution containing 200 μM MAL and 2 mM NAD+ was added to initiate the reaction, which was incubated at 37 °C for 4 h. This allowed for ~50% deacetylation of MAL. After incubation, 20 μl of trypsin solution (0.5 mg/ml) was added, and the trypsin cleavage reaction was allowed to proceed at 37 °C for 1 h. Fluorescence readings were obtained using a fluorescence reader(GENiosPro TECAN), with the excitation wavelength set to 360 nm and the emission set to 465 nm.

[2] = target: T2, NAD-dependent protein deacetylase sirtuin-1 (Homo sapiens, UniProt Q96EB6); assay: Fluorescence-Based Deacetylation Assay; conditions: pH 8; 37 °C
T2 sequence (Q96EB6 whole entry): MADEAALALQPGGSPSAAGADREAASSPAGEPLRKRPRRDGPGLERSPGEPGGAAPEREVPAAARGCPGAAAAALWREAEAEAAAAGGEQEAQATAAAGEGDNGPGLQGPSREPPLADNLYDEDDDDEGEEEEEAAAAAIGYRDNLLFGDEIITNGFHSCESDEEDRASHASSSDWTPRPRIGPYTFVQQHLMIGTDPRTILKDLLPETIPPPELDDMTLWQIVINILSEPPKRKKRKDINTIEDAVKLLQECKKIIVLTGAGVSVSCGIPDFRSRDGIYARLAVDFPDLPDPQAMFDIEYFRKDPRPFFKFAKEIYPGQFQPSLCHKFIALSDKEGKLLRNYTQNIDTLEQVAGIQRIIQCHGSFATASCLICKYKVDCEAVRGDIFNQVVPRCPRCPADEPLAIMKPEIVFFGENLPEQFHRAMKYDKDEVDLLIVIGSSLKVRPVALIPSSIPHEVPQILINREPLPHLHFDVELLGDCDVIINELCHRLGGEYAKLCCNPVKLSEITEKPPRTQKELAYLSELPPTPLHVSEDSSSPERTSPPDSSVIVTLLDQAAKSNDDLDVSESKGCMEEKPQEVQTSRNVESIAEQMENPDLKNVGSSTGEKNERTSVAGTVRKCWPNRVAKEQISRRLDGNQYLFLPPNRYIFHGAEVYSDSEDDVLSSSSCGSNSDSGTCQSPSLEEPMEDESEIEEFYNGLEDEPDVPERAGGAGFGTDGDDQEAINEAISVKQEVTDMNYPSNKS
Description: as §1

COCCCNC(=O)c1ccc2c(c1)C1C3CCC(C3)C1C(c1ccccc1)N2 (stereo not given) [AEM1 derivative, 1]
IC50 [1]: 18.7 µM

NC(=O)c1ccc2c(c1)C1C3CCC(C3)C1C(c1ccccc1)N2 (stereo not given) [AEM1]
IC50 [2]: 118 µM | IC50 [1]: 18.5 µM

O=C(NCc1cccnc1)c1ccc2c(c1)C1C3CCC(C3)C1C(c1ccccc1)N2 (stereo not given) [AEM2]
IC50 [2]: > 100 µM | IC50 [1]: 3.8 µM
